PubChem BioAssay AID220 (DTP/NCI, 2004)
Several values for one entry are separate records, joined by “and”; a condition that tells them apart may be missing. Equal values may be shown once. Inconclusive results are not listed.

Tested on: CD8F1 mice, subcutaneous mammary adenocarcinoma, T/C%
Assay: NCI In Vivo Anticancer Drug Screen. Data for tumor model Mammary Adenocarcinoma CD8F1 (subcutaneous) in CD8F1
Conditions: higher = larger tumour
Method in brief: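 Mice carrying transplanted tumors received test compound, and survival or tumor size was recorded. Each value is the treated-group measurement divided by the corresponding measurement in vehicle-dosed controls.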

[1] = endpoint: median tumor weight (est.), dose: 25.0 mg/kg/injection, schedule: Q07DX005 (ip), vehicle: Klucel (hydroxypropylcellulose) (HPC)
[2] = endpoint: median tumor weight change, dose: 125.0 mg/kg/injection, schedule: Q01DX001 (ip), vehicle: saline
[3] = endpoint: median tumor weight change, dose: 125.0 mg/kg/injection, schedule: Q01DX001 (ip), vehicle: saline with Tween-80
[4] = endpoint: median tumor weight change, dose: 250.0 mg/kg/injection, schedule: Q01DX001 (ip), vehicle: saline with Tween-80
[5] = endpoint: median tumor weight change, dose: 500.0 mg/kg/injection, schedule: Q01DX001 (ip), vehicle: saline with Tween-80

Structure (SMILES): N#CCCN(C(=S)Nc1cccc(C(F)(F)F)c1)C1CCCCC1
- T/C [1]: 66 % of control
- T/C (endpoint: median tumor weight (est.), dose: 50.0 mg/kg/injection, schedule: Q07DX005 (ip), vehicle: Klucel (hydroxypropylcellulose) (HPC)): 116 % of control
- T/C (endpoint: median tumor weight (est.), dose: 100.0 mg/kg/injection, schedule: Q07DX005 (ip), vehicle: Klucel (hydroxypropylcellulose) (HPC)): 75 % of control
- T/C (endpoint: median tumor weight (est.), dose: 200.0 mg/kg/injection, schedule: Q07DX005 (ip), vehicle: Klucel (hydroxypropylcellulose) (HPC)): 60 % of control
- T/C (endpoint: median tumor weight (est.), dose: 400.0 mg/kg/injection, schedule: Q07DX005 (ip), vehicle: Klucel (hydroxypropylcellulose) (HPC)): 38 % of control
- T/C (endpoint: median tumor weight (est.), dose: 800.0 mg/kg/injection, schedule: Q07DX005 (ip), vehicle: Klucel (hydroxypropylcellulose) (HPC)): 60 % of control

Structure (SMILES): O=C(C1CO1)C(Cl)(Cl)Cl (configuration not stated)
- T/C (endpoint: median tumor weight change, dose: 4.0 mg/kg/injection, schedule: Q01DX001 (ip), vehicle: saline): 81 % of control
- T/C (endpoint: median tumor weight change, dose: 8.0 mg/kg/injection, schedule: Q01DX001 (ip), vehicle: saline): 72 % of control
- T/C (endpoint: median tumor weight change, dose: 16.0 mg/kg/injection, schedule: Q01DX001 (ip), vehicle: saline): 68 % of control
- T/C [2]: 34 % of control

Structure (SMILES): CCCCCCCCCCCCN1C(C)=CS/C1=C\C=C\c1scc(C)[n+]1CCCCCCCCCCCC
- T/C (endpoint: median tumor weight change, dose: 7.82 mg/kg/injection, schedule: Q01DX001 (ip), vehicle: saline with Tween-80): 80 % of control
- T/C (endpoint: median tumor weight change, dose: 15.63 mg/kg/injection, schedule: Q01DX001 (ip), vehicle: saline with Tween-80): 92 % of control
- T/C (endpoint: median tumor weight change, dose: 31.25 mg/kg/injection, schedule: Q01DX001 (ip), vehicle: saline with Tween-80): 65 % of control

Structure (SMILES): CC(=O)C(=O)O.CC(=O)C(=O)O.[NH-]C1CCCCC1[NH-].[Pt+2] (configuration not stated)
- T/C (endpoint: median tumor weight change, dose: 15.0 mg/kg/injection, schedule: Q01DX001 (ip), vehicle: dextrose): 70 % of control
- T/C (endpoint: median tumor weight change, dose: 30.0 mg/kg/injection, schedule: Q01DX001 (ip), vehicle: dextrose): 79 % of control
- T/C (endpoint: median tumor weight change, dose: 60.0 mg/kg/injection, schedule: Q01DX001 (ip), vehicle: dextrose): 51 % of control
- T/C (endpoint: median tumor weight change, dose: 62.5 mg/kg/injection, schedule: Q01DX001 (ip), vehicle: dextrose): -38 % of control
- T/C (endpoint: median tumor weight change, dose: 120.0 mg/kg/injection, schedule: Q01DX001 (ip), vehicle: dextrose): 45 % of control

Structure (SMILES): COc1cc(C2c3cc4c(cc3C(O)C(CO)C2CO)OCO4)cc(OC)c1OC (configuration not stated)
- T/C [3]: 85 % of control
- T/C [4]: 102 % of control
- T/C [5]: 77 % of control
- T/C (endpoint: median tumor weight change, dose: 1000.0 mg/kg/injection, schedule: Q01DX001 (ip), vehicle: saline with Tween-80): 95 % of control
- T/C (endpoint: median tumor weight change, dose: 2000.0 mg/kg/injection, schedule: Q01DX001 (ip), vehicle: saline with Tween-80): 50 % of control

Structure (SMILES): O=C1CCC(=O)N1CO
- T/C [2]: 97 % of control
- T/C (endpoint: median tumor weight change, dose: 250.0 mg/kg/injection, schedule: Q01DX001 (ip), vehicle: saline): 89 % of control
- T/C (endpoint: median tumor weight change, dose: 500.0 mg/kg/injection, schedule: Q01DX001 (ip), vehicle: saline): 81 % of control
- T/C (endpoint: median tumor weight change, dose: 1000.0 mg/kg/injection, schedule: Q01DX001 (ip), vehicle: saline): 75 % of control

Structure (SMILES): O=CC=O
- T/C [1]: 92 % of control and 100 % of control

Structure (SMILES): CC1(C)CC2(C)OC2C2(C1)N=NC(=Nc1ccccc1)O2 (configuration not stated)
- T/C [3]: 78 % of control
- T/C [4]: 64 % of control
- T/C [5]: 41 % of control

Structure (SMILES): CC(/C=C/c1ccccc1)=Nc1ccccc1
- T/C [3]: 107 % of control
- T/C [4]: 97 % of control
- T/C [5]: 99 % of control

Structure (SMILES): COC(C(=O)C(O)C(C)O)C1Cc2cc3cc(OC4CC(OC(C)=O)C(OC5CC(O)C(OC)C(C)O5)C(C)O4)cc(O)c3c(O)c2C(=O)C1OC1CC(OC2CC(OC3CC(C)(O)C(OC(=O)C(C)C)C(C)O3)C(O)C(C)O2)C(O)C(C)O1 (configuration not stated)
- T/C (endpoint: median tumor weight (est.), dose: 0.5 mg/kg/injection, schedule: Q07DX005 (ip), vehicle: saline): 76 % of control
- T/C (endpoint: median tumor weight (est.), dose: 1.0 mg/kg/injection, schedule: Q07DX005 (ip), vehicle: saline): 30 % of control
- T/C (endpoint: median tumor weight (est.), dose: 2.0 mg/kg/injection, schedule: Q07DX005 (ip), vehicle: saline): 34 % of control
